According to patent publication US12534439B2, “Xanthohumol derivatives and methods for making and using” (Oregon State University, priority 2021, dated 2026):

Test system: HFD-fed C57BL/6J mice
Experiment: Untargeted cortex LC-MS metabolomics
Type: in vivo
Conditions: cortex of HFD-fed mice
Method: Plasma and Cortex LC-MS Metabolomics. The left and right sides of the cortex were pooled and ground using liquid nitrogen. Cortex samples (approximately 30 mg) were extracted as previously described with slight modifications. Tissues were homogenized with 600 μL of cold 80% acetonitrile with 0.1% formic acid containing 0.2 μg/mL of dopamine-d4 (Sigma-Aldrich, St Louis, MO, USA) and 0.2 μg/mL of chlorpropamide (Sigma-Aldrich, St Louis, MO, USA) using a counter-top bullet blender for 2 min and centrifuged at 20 000 rpm for 10 minutes. Supernatants were transferred to high performance liquid chromatography (HPLC) vials for analysis.
LC-high-resolution mass spectrometry/MS. Data dependent acquisition in both negative and positive ion mode was conducted using a Shimadzu Nexera UPLC system coupled to an AB SCIEX TripleTOF 5600 mass spectrometer (AB SCIEX, Toronto, Canada). Chromatographic separation was conducted using an Inertsil Phenyl-3 column (4.6×150 mm, 100 Å, 5 μm; GL Sciences, Tokyo, Japan). Spray voltage was −4200 V for negative ion mode and 4500 V for positive ion mode acquisition. The injection volume was 3 μL. Metabolite identifications were performed using Progenesis QI software (V2.4.6911) with METLIN plugin V1.0.6499 (NonLinear Dynamics, United Kingdom). Progenesis QI was used for peak picking, retention time correction, data normalization, peak alignment, and metabolite annotations. Metabolites were detected in both ion modes; the one with the lowest coefficient of variation of the QC was kept.

Compound: COc1cc(O)c(CC=C(C)C)c(O)c1-c1cc(-c2ccc(O)cc2)n(C)n1 [XP, 4-(5-(4-hydroxyphenyl)-1-methyl-1H-pyrazol-3-yl)-5-methoxy-2-(3-methylbut-2-en-1-yl)benzene-1,3-diol]
- Ion intensities, Mean: 1,2-DIPALMITOYL-SN-GLYCEROL: 1513.84
- Ion intensities, Mean: 1-Arachidonoyl-glycerophosphoinositol: 546.96
- Ion intensities, Mean: 1-Palmitoyl-2-linoleoyl PE: 1180.62
- Ion intensities, Mean: 2-Pyrrolidinone: 1222.06
- Ion intensities, Mean: 2′-DEOXYURIDINE 5′-MONOPHOSPHATE: 594.66
- Ion intensities, Mean: 3-Methyl-L-histidine: 518.49
- Ion intensities, Mean: 3-PHOSPHO-GLYCERIC ACID: 2370.20
- Ion intensities, Mean: 5-Acetylamino-6-amino-3-methyluracil: 52.73
- Ion intensities, Mean: 5-Methylcytidine: 9448.98
- Ion intensities, Mean: 12-HYDROXYDODECANOIC-ACID: 2251.29
- Ion intensities, Mean: 20-Hydroxy-PGE2: 7093.39
- Ion intensities, Mean: 27-Hydroxycholesterol: 20090.45
- Ion intensities, Mean: ADENOSINE: 49823.74
- Ion intensities, Mean: ADENOSINE 5′-DIPHOSPHORIBOSE: 4312.21
- Ion intensities, Mean: ADENOSINE 5′-MONOPHOSPHATE: 90459.20
- Ion intensities, Mean: ADENOSINE-5′-DIPHOSPHOGLUCOSE: 1755.31
- Ion intensities, Mean: ADP: 3426.97
- Ion intensities, Mean: AMINOADIPATE: 331.86
- Ion intensities, Mean: ASCORBATE: 1431.15
- Ion intensities, Mean: ASPARTATE: 1333.10
- Ion intensities, Mean: Acetylcarnitine: 12649.68
- Ion intensities, Mean: Acetylcholine: 1745.95
- Ion intensities, Mean: Adenine: 1949.85
- Ion intensities, Mean: Adenylosuccinate: 1016.78
- Ion intensities, Mean: Adenylsuccinic acid: 3152.34
- Ion intensities, Mean: Arachidonic acid: 20901.19
- Ion intensities, Mean: Arachidonic acid ethyl ester: 351.43
- Ion intensities, Mean: Arginine: 2112.34
- Ion intensities, Mean: Aspartic acid: 8729.17
- Ion intensities, Mean: BILIVERDIN: 167.09
- Ion intensities, Mean: CARNITINE: 14584.14
- Ion intensities, Mean: CDP-Ethanolamine: 571.19
- Ion intensities, Mean: CHENODEOXYCHOLATE: 5735.03
- Ion intensities, Mean: CITRATE: 1682.49
- Ion intensities, Mean: CMP: 688.26
- Ion intensities, Mean: Carnosine: 1422.99
- Ion intensities, Mean: Choline: 8899.36
- Ion intensities, Mean: Creatine: 89712.34
- Ion intensities, Mean: Cysteineglutathione disulfide: 1531.40
- Ion intensities, Mean: Cytidine: 846.95
- Ion intensities, Mean: Cytidine 2′,3′-cyclic phosphate: 356.88
- Ion intensities, Mean: Cytidine diphosphate choline (CDPcholine): 2658.54
- Ion intensities, Mean: D-GLUCOSE 6-PHOSPHATE: 138.50
- Ion intensities, Mean: D-Glucaro-1,4-lactone: 1887.47
- Ion intensities, Mean: D-RIBOSE 5-PHOSPHATE: 136.10
- Ion intensities, Mean: DESMOSTEROL: 15551.25
- Ion intensities, Mean: DIHYDROOROTATE: 91.24
- Ion intensities, Mean: Deoxycytidine: 665.81
- Ion intensities, Mean: Deoxyguanosine: 2401.12
- Ion intensities, Mean: Docosahexaenoic acid: 2873.42
- Ion intensities, Mean: Docosenamide: 20845.53
- Ion intensities, Mean: Dodecanedioic acid: 333.82
- Ion intensities, Mean: ERUCIC ACID: 98.90
- Ion intensities, Mean: ETHANOLAMINE PHOSPHATE: 441.02
- Ion intensities, Mean: Ergothioneine: 515.38
- Ion intensities, Mean: Ethyl nicotinate: 81.18
- Ion intensities, Mean: GLUTAMIC ACID: 9048.31
- Ion intensities, Mean: GLUTAMINE: 22688.89
- Ion intensities, Mean: GUANOSINE 5′-MONOPHOSPHATE: 4141.69
- Ion intensities, Mean: Glutamate: 53559.34
- Ion intensities, Mean: Glutathione: 232313.32
- Ion intensities, Mean: Glycerophosphocholine: 124857.55
- Ion intensities, Mean: Guanosine monophosphate: 845.86
- Ion intensities, Mean: HEPTADECANOATE: 23.50
- Ion intensities, Mean: HISTIDINE: 1129.76
- Ion intensities, Mean: Homocarnosine: 689.23
- Ion intensities, Mean: Homoserine: 1034.62
- Ion intensities, Mean: Hydroxybutyric acid: 2833.09
- Ion intensities, Mean: Hydroxyphenethylamine: 4074.28
- Ion intensities, Mean: Hypoxanthine: 88.42
- Ion intensities, Mean: Hypusine: 196.91
- Ion intensities, Mean: ISOCITRIC ACID: 2051.66
- Ion intensities, Mean: ISOLEUCINE: 1578.44
- Ion intensities, Mean: Indoleacetaldehyde: 523.18
- Ion intensities, Mean: Inosine: 1409.62
- Ion intensities, Mean: Inosine 5′-monophosphate (IMP): 5581.09
- Ion intensities, Mean: Isostearic acid: 1901.95
- Ion intensities, Mean: L-2-Amino-5-hydroxypentanoicacid: 2343.03
- Ion intensities, Mean: L-OLEOYL-RAC-GLYCEROL: 2628.37
- Ion intensities, Mean: LACTATE: 3144.80
- Ion intensities, Mean: LAUROYLCARNITINE: 277.93
- Ion intensities, Mean: LEUKOTRIENE B4: 30.73
- Ion intensities, Mean: LYSINE: 107.27
- Ion intensities, Mean: Lathosterol: 14569.93
- Ion intensities, Mean: Lipoamide: 114.97
- Ion intensities, Mean: MALATE: 1664.52
- Ion intensities, Mean: Methionine: 2031.63
- Ion intensities, Mean: Methylthioadenosine: 3521.96
- Ion intensities, Mean: Myristoylcarnitine: 1303.77
- Ion intensities, Mean: N,N-dimethyl-Safingol: 578.09
- Ion intensities, Mean: N-(1-Deoxy-1-fructosyl) serine: 4331.01
- Ion intensities, Mean: N-ACETYL-L-ASPARTICACID: 25975.80
- Ion intensities, Mean: N-ACETYLNEURAMINATE: 1670.91
- Ion intensities, Mean: N-Acetyl-Glutamic acid: 205.45
- Ion intensities, Mean: N-Acetyl-L-alanine: 1909.11
- Ion intensities, Mean: N-Acetylaspartylglutamic acid: 2955.57
- Ion intensities, Mean: N-Acetylglutamine: 519.28
- Ion intensities, Mean: N-Acetylisoputreanine: 153.75
- Ion intensities, Mean: N-Acetyllactosamine: 273.32
- Ion intensities, Mean: N-Linoleoyl GABA: 54.12
- Ion intensities, Mean: N-Methyl-Glutamate: 2772.85
- Ion intensities, Mean: N-a-Acetyl-Arginine: 270.36
- Ion intensities, Mean: NAD: 1268.92
- Ion intensities, Mean: NE,NE,NE-TRIMETHYLLYSINE: 3943.68
- Ion intensities, Mean: Niacinamide: 5120.54
- Ion intensities, Mean: Nicotinamide adenine dinucleotide (NAD): 37985.70
- Ion intensities, Mean: O-Phosphoethanolamine: 302.71
- Ion intensities, Mean: Octadecenoic acid: 169.48
- Ion intensities, Mean: Oleamide: 3677.58
- Ion intensities, Mean: Oxidized glutathione: 4537.22
- Ion intensities, Mean: PALMITATE: 1211.29
- Ion intensities, Mean: PALMITOLEIC ACID: 39.36
- Ion intensities, Mean: PANTOTHENIC ACID: 524.89
- Ion intensities, Mean: PETROSELINIC ACID: 142.54
- Ion intensities, Mean: PHENYLALANINE: 2973.73
- Ion intensities, Mean: PHENYLETHANOLAMINE: 1559.27
- Ion intensities, Mean: Phenylpropionylglycine: 431.18
- Ion intensities, Mean: Phosphocholine: 23860.56
- Ion intensities, Mean: Phosphodimethyl-ethanolamine: 269.92
- Ion intensities, Mean: Pipecolic acid: 516.02
- Ion intensities, Mean: Propionylcarnitine: 540.78
- Ion intensities, Mean: Pyridoxamine-5′-Phosphate: 484.54
- Ion intensities, Mean: RAC-GLYCEROL-L-MYRISTATE: 283.53
- Ion intensities, Mean: S-Adenosylhomocysteine: 473.94
- Ion intensities, Mean: S-Adenosylmethionine: 18868.04
- Ion intensities, Mean: SERINE: 483.60
- Ion intensities, Mean: SUCCINATE: 304.14
- Ion intensities, Mean: Spermic acid 1: 199.76
- Ion intensities, Mean: Spermidine: 7809.52
- Ion intensities, Mean: Sphinganine: 23.16
- Ion intensities, Mean: Sphinganine 1-phosphate: 1966.99
- Ion intensities, Mean: Sphingosine: 1163.81
- Ion intensities, Mean: Stearoylglycerophosphoserine: 1831.40
- Ion intensities, Mean: Succinyladenosine: 217.97
- Ion intensities, Mean: TAURINE: 6801.22
- Ion intensities, Mean: THEOPHYLLINE: 18.56
- Ion intensities, Mean: TRYPTOPHAN: 1355.41
- Ion intensities, Mean: Tetradecanedioic acid: 115.20
- Ion intensities, Mean: Tetrahydrodeoxycortisol: 2674.78
- Ion intensities, Mean: Threoninyl-Alanine: 295.96
- Ion intensities, Mean: Tyrosine: 6818.63
- Ion intensities, Mean: URIDINE: 1161.25
- Ion intensities, Mean: URIDINE 5′-DIPHOSPHOGALACTOSE: 1728.73
- Ion intensities, Mean: URIDINE-5-MONOPHOSPHATE: 3704.01
- Ion intensities, Mean: Undecanedicarboxylic acid: 219.08
- Ion intensities, Mean: Uracil: 225.61
- Ion intensities, Mean: Uridine 5′-diphosphate: 422.30
- Ion intensities, Mean: Xanthine: 155.79
- Ion intensities, Mean: cyclic GMP-AMP: 2077.75
- Ion intensities, Mean: diethyltoluamide: 5.17
- Ion intensities, Mean: docosa-hexaenoic acid: 1911.88
- Ion intensities, Mean: hydroxyhexadecanoyl carnitine: 1048.02
- Ion intensities, Mean: hydroxyvitamin D3: 21210.39
- Ion intensities, Mean: sn-glycero-3-Phosphoethanolamine: 994.53
